The source of these data is patent US6602824B1, “Herbicidal composition and a method of using a naturally-occurring organic compound as a herbicide” (Greener Pastures Development Corp., priority 1999, dated 2003).

Structures can show the parent of a compound that is named as a salt.

For series [1], the system named is rats. As to conditions: orally administered to rats; cited from earlier work.
Series [2] concerns rats. Put plainly: LD50, single oral dose administered to rats. Conditions: orally administered to rats; versus sodium chloride.

As to `C[N+](C)(C)CC(=O)[O-]` [glycine betaine, 1-carboxy-N,N,N-trimethylmethanaminium inner salt], the LD50 entry in the series on rats [1] was “about 11,204 mg per kilogram of rat body we”. Moreover, the “toxicity relative to ordinary table salt, as reflected by the oral rat LD50” value in the series on rats [2] is given as “more than three times less toxic”.
